Tested on: MDA-MB-231 multicell spheroids, viability
Assay: Anticancer human tumor MDA-MB-231 cell line growth inhibition [PI3K];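 note: spheroids exposed to agents for seven days before reading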;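 for viability, T/C: percent of vehicle control luminescence with DMSO treated spheroids as 100%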
Details: for IC50: curve of first compound; for viability, T/C: stronger effect = lower value; active = viability on the fitted dose curve at most 10% of control; inactive = the rest
In short: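 Combination activity was assessed by viability in multicellular tumor spheroids carrying HUVEC and MSC components. Agents were tested with PI3K inhibitors from a Cmax-based top dose (or 10 microM) downward in half-log increments.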

[1] = second compound 0.00316 µM, first compound 0.0316 µM
[2] = second compound 0.00316 µM, first compound 0.1 µM
[3] = second compound 0.00316 µM, first compound 0.316 µM
[4] = second compound 0.00316 µM, first compound 1 µM
[5] = second compound 0.00316 µM, first compound 3.16 µM
[6] = second compound 0.00316 µM, first compound 10 µM
[7] = second compound 0.01 µM, first compound 0.0316 µM
[8] = second compound 0.01 µM, first compound 0.1 µM
[9] = second compound 0.01 µM, first compound 0.316 µM
[10] = second compound 0.01 µM, first compound 1 µM
[11] = second compound 0.01 µM, first compound 3.16 µM
[12] = second compound 0.01 µM, first compound 10 µM
[13] = second compound 0.0316 µM, first compound 0.0316 µM
[14] = second compound 0.0316 µM, first compound 0.1 µM
[15] = second compound 0.0316 µM, first compound 0.316 µM
[16] = second compound 0.0316 µM, first compound 1 µM
[17] = second compound 0.0316 µM, first compound 3.16 µM
[18] = second compound 0.0316 µM, first compound 10 µM
[19] = second compound 0.1 µM, first compound 0.0316 µM
[20] = second compound 0.1 µM, first compound 0.1 µM
[21] = second compound 0.1 µM, first compound 0.316 µM
[22] = second compound 0.1 µM, first compound 1 µM
[23] = second compound 0.1 µM, first compound 3.16 µM
[24] = second compound 0.1 µM, first compound 10 µM
[25] = second compound 0.316 µM, first compound 0.0316 µM
[26] = second compound 0.316 µM, first compound 0.1 µM
[27] = second compound 0.316 µM, first compound 0.316 µM
[28] = second compound 0.316 µM, first compound 1 µM
[29] = second compound 0.316 µM, first compound 3.16 µM
[30] = second compound 0.316 µM, first compound 10 µM
[31] = second compound 1 µM, first compound 0.0316 µM
[32] = second compound 1 µM, first compound 0.1 µM
[33] = second compound 1 µM, first compound 0.316 µM
[34] = second compound 1 µM, first compound 1 µM
[35] = second compound 1 µM, first compound 3.16 µM
[36] = second compound 1 µM, first compound 10 µM

Cn1ncc(Cl)c1-c1cc(C(=O)NC(CN)Cc2cccc(F)c2)sc1Cl (centres undefined) + COc1c(OCCCN2CCOCC2)ccc2c3n(c(=NC(=O)c4cnc(N)nc4)nc12)CCN3
2080 nM: IC50 (second compound 0.01 µM)
1040 nM: IC50 (second compound 0.0316 µM)
2620 nM: IC50 (second compound 0.00316 µM)
inactive: viability, T/C [1] 99.2% | viability, T/C [2] 93.8% | viability, T/C [3] 84.5% | viability, T/C [4] 72% | viability, T/C [5] 44.6% | viability, T/C [6] 25.7% | viability, T/C [7] 78.6% | viability, T/C [8] 83.1% | viability, T/C [9] 74.2% | viability, T/C [10] 63.7% | viability, T/C [11] 42.3% | viability, T/C [12] 25.4% | viability, T/C [13] 60.2% | viability, T/C [14] 61.5% | viability, T/C [15] 60.8% | viability, T/C [16] 48.9% | viability, T/C [17] 34.8% | viability, T/C [18] 19.6% | viability, T/C [19] 48.2% | viability, T/C [20] 47.5% | viability, T/C [21] 46% | viability, T/C [22] 40.7% | viability, T/C [23] 29.9% | viability, T/C [24] 17.4% | viability, T/C [25] 32.5% | viability, T/C [26] 33.6% | viability, T/C [27] 29.9% | viability, T/C [28] 29.2% | viability, T/C [29] 20.9% | viability, T/C [30] 13.9% | viability, T/C [31] 25.8% | viability, T/C [32] 24.8% | viability, T/C [33] 24.4% | viability, T/C [34] 23.4% | viability, T/C [35] 22.2% | viability, T/C [36] 20.8%
< 31.6 nM: IC50 (second compound 0.1 µM) | IC50 (second compound 0.316 µM) | IC50 (second compound 1 µM)

Cn1nccc1Nc1nccc(-c2ccn(C(CO)c3ccc(Cl)c(F)c3)c(=O)c2)n1 (centres undefined) + COc1c(OCCCN2CCOCC2)ccc2c3n(c(=NC(=O)c4cnc(N)nc4)nc12)CCN3
active: viability, T/C [30] 8.91% | viability, T/C [36] 7.95%
467 nM: IC50 (second compound 0.00316 µM)
< 31.6 nM: IC50 (second compound 0.1 µM) | IC50 (second compound 0.316 µM) | IC50 (second compound 1 µM)
inactive: viability, T/C [1] 74.5% | viability, T/C [2] 69.9% | viability, T/C [3] 48.3% | viability, T/C [4] 44% | viability, T/C [5] 37.7% | viability, T/C [6] 28% | viability, T/C [7] 65.9% | viability, T/C [8] 58.6% | viability, T/C [9] 46% | viability, T/C [10] 34.8% | viability, T/C [11] 28.3% | viability, T/C [12] 23.5% | viability, T/C [13] 50.3% | viability, T/C [14] 48.9% | viability, T/C [15] 41.8% | viability, T/C [16] 32.5% | viability, T/C [17] 26.6% | viability, T/C [18] 20.4% | viability, T/C [19] 41.6% | viability, T/C [20] 34.3% | viability, T/C [21] 29.3% | viability, T/C [22] 25.9% | viability, T/C [23] 22.4% | viability, T/C [24] 13.1% | viability, T/C [25] 25.8% | viability, T/C [26] 22.8% | viability, T/C [27] 17.8% | viability, T/C [28] 17% | viability, T/C [29] 13.2% | viability, T/C [31] 20.8% | viability, T/C [32] 16.8% | viability, T/C [33] 13.8% | viability, T/C [34] 12.7% | viability, T/C [35] 10.5%
48.2 nM: IC50 (second compound 0.0316 µM)
222 nM: IC50 (second compound 0.01 µM)

— PubChem BioAssay AID1963958 (Molecular Pharmacology Branch, DTP, NCI, 2024)
